Values joined by “and” are separate entries in the source; they are usually repeats but may differ in a detail not shown here. Identical values can stand only once.
Assays:
Aβ(1-40) = target: T1, Aβ(1-40) (Homo sapiens, UniProt P05067); assay: Circular dichroism analysis, pre-incubation assay, β-sheet at 218 nm; format: biochemical; settings: CD 218 nm, 0.02M Tris pH 7.4
T1 construct: Prepare a fresh 40 μm solution of Aβ(1-40) in 0.02M Tris, pH 7.4; made in house; host or cells: chemical synthesis (FMOC), HPLC purified
Method: The assay is conducted as follows:
Instrument: JASCO J-715 Spectropolarimeter.
Cell/cuvette: Hellma quartz (QS) with 1.0 mm pathlength Room temperature. Wavelength interval: 250 nm-190 nm.
Band width: 1.0 nm Response time: 1 sec Scanning speed: 20 nm/min Number of accumulations/spectrum: 5
1. Prepare a fresh 40 μm solution of Aβ(1-40) in 0.02M Tris, pH 7.4.
2. Prepare a 1 mM solution of test compounds in 0.02M Tris, pH 7.4.
3. Combine equal volumes of the Aβ(1-40) and test compound solutions.
4. Incubate the mixtures for 19 h.
5. Take the CD spectrum using the parameters above.
6. Return the mixtures to the incubator and incubate to 43 h.
7. Take the CD spectrum using the parameters above. • Inhibition of Aβ40 assembly/aggregation is determined by comparing the amount of b-sheet structure) appearing at lambda=218 nm) obtained in control and in treated sample at each timepoint.

[1] = target: T2, splenic Amyloid A fibrils (Mus musculus, UniProt P05367); assay: Acute AEF-AgNO3-induced amyloidosis mouse model (secondary amyloidosis); format: in vivo, mice; settings: for % PC (splenic AA fibrils, % of positive control): 5 days; for Activity (in vivo, secondary amyloidosis): overall grade over the concentrations tested
T2 construct: from tissue; host or cells: spleen of CBA/J mice (AEF/AgNO3-induced amyloidosis)
T2 sequence (P05367 20-95 limits assumed): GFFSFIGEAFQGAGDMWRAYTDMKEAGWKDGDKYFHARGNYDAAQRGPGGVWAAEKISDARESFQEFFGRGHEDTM
Method: The in vivo screening is based on the acute AEF-AgNO3-induced amyloidosis mouse model. The test is conducted on a total of 6 days and each compound administered in the drinking solution for a 5-day period.
Female mice of CBA/J strain are individually identified, weighed and assigned to a group of 5 animals following an acclimation period. The amyloidosis is induced by intravenous injection of 100 μg of AEF (amyloid enhancing factor) concomitantly with a subcutaneous injection of 0.5 ml of 2% of a solution of AgNO3. Animals in the negative control group are injected with saline only.
Twenty-four hours following the amyloidosis induction, the compound is added to a 1% solution of sucrose (vehicle) and distributed to animals in drinking bottles for a period of 5 days. Animals in the positive control group receive the vehicle only. Drinking solutions are made available ad libitum to each group of animals and the volume measured before and after use to calculate the consumption of each solution. Blood samples are collected for in vitro determination of plasma serum amyloid A levels.
On day 6, mice are sacrificed, weighed and organs such as spleen are existed and fixed in acid alcohol. Spleen samples are processed, embedded in paraffin wax and cut inyo sections. Spleen sections from each animal are stained with the Congo Red staining solution and the splenic Amyloid A fibrils aggregation evaluated by image analysis. Results are expressed as % of AA fibrils deposited in the splenic perifollicular area. Raw data is analyzed.
Mean of mouse body weight and the mean consumption of the drinking solution (ml) are compiled. Variation of the body weight before the induction and at the end of the assay is calculated (%). The dose level of the compound consumed (mg/kg/day) is calculated as well.
P-values for Student t-test and Mann-Whitney tests comparing a group to the positive control are calculated using GraphPad Prism computer software. The mean of the image analysis reading of spleen serious for a group is expressed as percentage of the mean of the image analysis readings for the positive control group (% PC).

IAPP [2] = target: T3, IAPP (Homo sapiens, UniProt P10997); assay: Thioflavine T spectroscopy, rate of amyloid fibril formation; format: biochemical; settings: ThT 62.5 μM; excitation 440 nm, emission 482 nm
T3 sequence (P10997 34-70 limits assumed): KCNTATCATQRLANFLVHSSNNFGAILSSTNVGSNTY
Method: Detection of ThT fluorescence can be used as a sensitive assay for amyloid fibril formation under different conditions. This assay has been used in experiments to determine the effects of compounds of the invention on amyloid fibril formation.
Human IAPP was dissolved in 40% trifluoroethanol and freeze-dried into conveniently-sized aliquots. IAPP was prepared immediately before the measurements by dissolving in 40% 1,1,1,3,3,3-hexafluoro-2-propanol (HFIP) in water to maintain the peptide in alpha helical conformation and soluble. A stock solution of ThT (2.5 mM) was prepared, 7.9 mg in 10 mL Tris-HCl pH 7.0 and filtered (0.22 μm). Solutions were kept in the dark until use. Fluorescence was examined at 440 nm excitation (slit 5 nm), and emission at 482 nm (slit 10 nm) with stirring. […] of ThT stock (final concentration 62.5 μM) was added to peptide sample and made up to 1 mL in the cuvette. The sample was stirred for 5 min. before taking a reading. Measurements were made at an initial time point (5 min. from sample preparation), at intervals over the next 4-6 h and after overnight incubation at room temperature.

IAPP [3] = target: T3, IAPP; assay: Circular dichroism analysis of IAPP-associated fibril formation (Example 7); format: biochemical; parameters: add 10 μL of 10 mg/mL IAPP stock solution (final 100 ng peptide); settings: molar ratio 1:5 peptide:compound
Method: Circular dichroism analysis was conducted to confirm the activity of certain therapeutic compounds in preventing or inhibiting IAPP-associated fibril formation in accordance with the present disclosure by determining the presence or absence of […] conformation.
Instrument: JASCO J-715 Spectropolarimeter
Cell cuvette: Hellma quartz (QS) with 1.0 mm pathlength
Wavelength interval: 250 nm-190 nm
Scanning speed: 20 nm/min
The assay, a co-incubation procedure, examines the ability of a compound or substance to inhibit the assembly of amyloid fibrils, e.g., to test for the presence of the amyloidotic β-sheet conformation in the presence of soluble IAPP. Samples are run in the presence and absence (i.e., water alone) of buffering agent, which is done to determine if competitive effects are seen with the ionic buffer (usually phosphate).
Add components used at a molar ratio of 1:10 [ peptide:compound]; add 10 μL of 10 mg/mL IAPP stock solution (final […] peptide) to the aqueous solution containing compound to a final volume of 400 μL. The pH of the final assay solution is measured to ensure there is no fluctuation and the spectrum is accumulated using the parameters as shown above.
Add desired amount of compound to achieve a 1:10 molar ratio in 10 mM phosphate buffer, pH 7. Add 10 μL of 10 mg/mL IAPP stock solution (final peptide 100 μg) to the phosphate buffered solution containing the compound and bring to a final volume of 400 μL. The pH of the final assay solution is measured to ensure there is no fluctuation and the spectrum is accumulated using the parameters as shown above.
In both assays, a control sample is run with each test group. This control contains peptide only in water or buffer at a similar final volume of 400 μl. Spectra for the control are collected initially (first run) and at the end of the test (final run) to ensure that the peptide has not undergone extensive aggregation during the course of the assay. Spectra for the controls are used to compare with the measurements obtained with the treated samples.
Make fresh 1 mg/mL stock solution of IAPP in 10 mM phosphate buffer, pH 7. Add desired amount of compound to achieve a 1:10 molar ratio in 10 mM phosphate buffer, pH 7. Incubate for 3 days at room temperature. Make up to final volume of 400 μL with 10 mM phosphate buffer, pH 7. The pH of the final assay solution is measured to ensure there is no fluctuation and the spectrum is accumulated using the parameters as shown above.
A similar control is run for comparative purposes.
Plots of the spectra (control and treated) are individually assembled and the changes in ellipticity at 218 nm are examined. This minimum is directly correlated with the amount of β-sheet present in the sample. Changes in either a positive or negative direction are noted and a relative value (“active” or “not active”) assigned to the compound as a measure of activity. In a subsequent experiment with the compounds at a molar ratio of 1:5 [ peptide:compound], the degree of randomness was noted, an indication of the ability of the compounds to prevent amyloid aggregation. A more positive number indicates less β-sheet formation. The ability of a compound to prevent β-sheet formation for at least 24 h is important, as the non-aggregated amyloid fibrils will be excreted in the soluble form. In the control noted below, the decrease in CD (mdegs) may indicate that some of the peptide is aggregating under these conditions.

[4] = 6.25 mg/ml in drinking solution
[5] = 12.5 mg/ml in drinking solution
[6] = 25.0 mg/ml in drinking solution

T1 sequence (P05067 672-711 limits assumed): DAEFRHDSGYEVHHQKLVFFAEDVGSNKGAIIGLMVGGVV

Compound | relative inhibition compared to Aβ alone, incubation time 0 h (Aβ(1-40)) | relative inhibition compared to Aβ alone, incubation time 19 h (Aβ(1-40)) | relative inhibition compared to Aβ alone, incubation time 43 h (Aβ(1-40)) | % PC (splenic AA fibrils, % of positive control) [1, 4] | % PC (splenic AA fibrils, % of positive control) [1, 5] | Activity (in vivo, secondary amyloidosis) [1] | further results
O=C[C@H](NCCCS(=O)(=O)O)[C@@H](O)[C@H](O)[C@H](O)CO [XX, 2-deoxy-2-(3-sulfopropyl)amino-d-glucose] | – | – | – | 94% PC | 69% PC | Moderate | –
O=S(=O)(O)CCCN1CCC2=C(CCCC2)C1 [XVIII, 3-[2-(1,2,3,4,5,6,7,8-octahydroisoquinolinyl)]-1-propanesulfonic acid] | – | – | – | 86% PC | – | Moderate | % PC (splenic AA fibrils, % of positive control) ([1]; 3.13 mg/ml in drinking solution): 74% PC
COc1ccc(S(=O)(=O)O)c2cccnc12 [LVXIV, 8-methoxyquinoline-5-sulfonic acid] | – | – | – | – | – | – | IAPP-associated fibril assembly (ThT fluorescence) (IAPP [2]): inhibit or prevent IAPP-associated fibril assembly; Conformation at 24 h (IAPP [3]; 24 h): β; CD at 24 h (IAPP [3]; 24 h, more positive = less β-sheet): (−1.3) mdegs; Conformation at 48 h (IAPP [3]): β; CD at 48 h (IAPP [3]; more positive = less β-sheet): −0.8 mdegs; Conformation at T0 (IAPP [3]): Random
N[C@@H](COP(=O)(O)O)C(=O)O [LVXII, O-phospho-L-serine] | – | – | – | – | – | – | IAPP-associated fibril assembly (ThT fluorescence) (IAPP [2]): inhibit or prevent IAPP-associated fibril assembly; Conformation at 24 h (IAPP [3]; 24 h): Random; Conformation at 48 h (IAPP [3]): β; CD at 48 h (IAPP [3]; more positive = less β-sheet): −2.0 mdegs; Conformation at T0 (IAPP [3]): Random
COc1cc2c(cc1OC)CN(CCCS(=O)(=O)O)CC2 [I, 3-[2-(6,7-dimethoxy-1,2,3,4-tetrahydroisoquinolinyl)]-1-propanesulfonic acid] | – | – | – | 87 % PC | 76 % PC and 68 % PC | Moderate | % PC (splenic AA fibrils, % of positive control) [1, 6]: 69% PC

Now from value to compound, other results behind:

relative inhibition compared to Aβ alone, incubation time 0 h (Aβ(1-40)) | relative inhibition compared to Aβ alone, incubation time 19 h (Aβ(1-40)) | relative inhibition compared to Aβ alone, incubation time 43 h (Aβ(1-40)) | % PC (splenic AA fibrils, % of positive control) [1, 4] | % PC (splenic AA fibrils, % of positive control) [1, 5] | Activity (in vivo, secondary amyloidosis) [1] | Compound | further results
+ (+: 0-25%) | ++++ (++++: 75-100%) | +++ (+++: 50-75%) | – | – | – | CC(=O)NCCCS(=O)(=O)O [VIII, 3-acetylamino-1-propanesulfonic acid] | –
— (No effect compared to Aβ alone) | + (+: 0-25%) | ++ (++: 25-50%) | 87% PC | 54 % PC and 67 % PC and 56 % PC | Moderate | O=S(=O)(O)CCCN1CCCc2ccccc21 [III, 3-[1-(1,2,3,4-tetrahydroquinolinyl)]-1-propanesulfonic acid] | % PC (splenic AA fibrils, % of positive control) ([1]; 3.5 mg/ml in drinking solution): 113% PC; % PC (splenic AA fibrils, % of positive control) [1, 6]: 82 % PC and 77 % PC
+ (+: 0-25%) | ++ (++: 25-50%) | ++ (++: 25-50%) | 94 % PC and 91 % PC | 83% PC | Moderate | O=S(=O)(O)CCCN1CCc2ccccc21 [VII, 3-(1-indolinyl)-1-propanesulfonic acid] | % PC (splenic AA fibrils, % of positive control) [1, 6]: 71 % PC and 97 % PC
— (No effect compared to Aβ alone) | ++++ (++++: 75-100%) | — (No effect compared to Aβ alone) | – | – | – | N[C@@H](Cc1cccc(CS(=O)(=O)O)c1)C(=O)O [LVXIII, 3-Sulfomethyl-L-phenylalanine] | –
+ (+: 0-25%) | +++ (+++: 50-75%) | ++ (++: 25-50%) | 74 % PC and 40 % PC | 64 % PC and 38 % PC | Active | COc1ccc2c(c1)CCN(CCCS(=O)(=O)O)C2 [IX, 3-[2-(6-methoxy-1,2,3,4-tetrahydroisoquinolinyl)]-1-propanesulfonic acid] | –
+ (+: 0-25%) | ++ (++: 25-50%) | ++ (++: 25-50%) | – | – | – | O=C(NCCCS(=O)(=O)O)c1ccccc1 [X, 3-benzoylamino-1-propanesulfonic acid] | –
